Columns and labels:
Format in all cases: in vivo
[1] = system: barnyardgrass (Echinochloa crus-galli); experiment: Test A postemergence barnyardgrass; settings: Echinochloa crus-galli, post-emergence, 240 h, 0 to 100 scale, 0 is no effect, 100 is complete control, read-out: Plant response rating, Barnyardgrass
Method in brief: (§1)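 Seeds sown in loam–sand blend received a directed preemergence soil spray; postemergence plants (2–10 cm, one- to two-leaf stage) were sprayed in the same soil. Chemicals were formulated in non-phytotoxic solvent with surfactant. After ~10 d in greenhouse, injury was rated visually against untreated controls, 0 (no effect) to 100 (complete control).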

[2] = system: blackgrass (Alopecurus myosuroides); experiment: Test A postemergence blackgrass; settings: Alopecurus myosuroides, post-emergence, 240 h, 0 to 100 scale, 0 is no effect, 100 is complete control, read-out: Plant response rating, Blackgrass
Method in brief: as §1

[3] = system: kochia (Kochia scoparia); experiment: Test A preemergence kochia; settings: Bassia scoparia, pre-emergence, 240 h, 0 to 100 scale, 0 no effect, 100 complete control, read-out: Kochia plant response rating
Method in brief: as §1

[4] = system: ryegrass, Italian (Italian ryegrass, Lolium multiflorum); experiment: Test A postemergence ryegrass, Italian; settings: Lolium multiflorum, post-emergence, 240 h, 0 to 100 scale, 0 is no effect, 100 is complete control, read-out: Plant response rating, Ryegrass, Italian
Method in brief: as §1

[5] = system: rice (Oryza sativa); experiment: Test B flooded paddy test rice; settings: Oryza sativa, Table B, Flood, scale 0 to 100, read-out: Plant response rating
Method in brief: (§2)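 Plants at 2-leaf stage in pots flooded 3 cm above soil; compounds applied directly into paddy water, depth kept throughout.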

[6] = system: barnyardgrass (Echinochloa crus-galli); experiment: Test A preemergence barnyardgrass; settings: 0 to 100 scale
Method in brief: as §1

[7] = system: barnyardgrass (Echinochloa crus-galli); experiment: Test B flooded paddy test barnyardgrass; settings: Echinochloa crus-galli, Table B, Flood, scale 0 to 100, read-out: Plant response rating
Method in brief: as §2

[8] = system: foxtail, giant (giant foxtail, Setaria faberii); experiment: Test A postemergence foxtail, giant; settings: Setaria faberi, post-emergence, 240 h, 0 to 100 scale, 0 is no effect, 100 is complete control, read-out: Plant response rating, Foxtail, Giant
Method in brief: as §1

[9] = system: corn (Zea mays); experiment: Test A postemergence corn; settings: Zea mays, post-emergence, 240 h, 0 to 100 scale, 0 is no effect, 100 is complete control
Method in brief: as §1

[10] = system: ragweed (common ragweed, Ambrosia elatior); experiment: Test A preemergence ragweed; settings: Ambrosia artemisiifolia, pre-emergence, 240 h, 0 to 100 scale, 0 no effect, 100 complete control, read-out: Ragweed plant response rating
Method in brief: as §1

[11] = system: ragweed (common ragweed, Ambrosia elatior); experiment: Test A postemergence ragweed; settings: Ambrosia artemisiifolia, post-emergence, 240 h, 0 to 100 scale, 0 is no effect, 100 is complete control, read-out: Plant response rating, Ragweed
Method in brief: as §1

[12] = system: foxtail, giant (giant foxtail, Setaria faberii); experiment: Test A preemergence foxtail, giant; settings: Setaria faberi, pre-emergence, 240 h, 0 to 100 scale, 0 no effect, 100 complete control, read-out: Foxtail, Giant plant response rating
Method in brief: as §1

[13] = system: kochia (Kochia scoparia); experiment: Test A postemergence kochia; settings: Bassia scoparia, post-emergence, 240 h, 0 to 100 scale, 0 is no effect, 100 is complete control, read-out: Plant response rating, Kochia
Method in brief: as §1

[14] = system: ducksalad (Heteranthera limosa); experiment: Test B flooded paddy test ducksalad; settings: Heteranthera limosa, Table B, Flood, scale 0 to 100, read-out: Plant response rating
Method in brief: as §2

[15] = system: ryegrass, Italian (Italian ryegrass, Lolium multiflorum); experiment: Test A preemergence ryegrass, Italian; settings: Lolium multiflorum, pre-emergence, 240 h, 0 to 100 scale, 0 no effect, 100 complete control, read-out: Ryegrass, Italian plant response rating
Method in brief: as §1

[16] = system: sedge, umbrella (small-flower umbrella sedge, Cyperus difformis); experiment: Test B flooded paddy test sedge, umbrella; settings: Cyperus difformis, Table B, Flood, scale 0 to 100, read-out: Plant response rating
Method in brief: as §2

[17] = system: pigweed (Amaranthus retroflexus); experiment: Test A preemergence pigweed; settings: Amaranthus retroflexus, pre-emergence, 240 h, 0 to 100 scale, 0 no effect, 100 complete control, read-out: Pigweed plant response rating
Method in brief: as §1

[18] = system: galium (catchweed bedstraw, Galium aparine); experiment: Test A postemergence galium; settings: Galium, post-emergence, 240 h, 0 to 100 scale, 0 is no effect, 100 is complete control, read-out: Plant response rating, Galium
Method in brief: as §1

[19] = system: pigweed (Amaranthus retroflexus); experiment: Test A postemergence pigweed; settings: Amaranthus retroflexus, post-emergence, 240 h, 0 to 100 scale, 0 is no effect, 100 is complete control, read-out: Plant response rating, Pigweed
Method in brief: as §1

[20] = system: wheat (Triticum aestivum); experiment: Test A postemergence wheat; settings: Triticum aestivum, post-emergence, 240 h, 0 to 100 scale, 0 is no effect, 100 is complete control, read-out: Plant response rating, Wheat
Method in brief: as §1

`O=C1NCCC(c2ccc(C(F)(F)F)cc2)C1C(=O)Nc1ccccc1Cl` (stereo not shown) [Compound 13, N-(2-chlorophenyl)-2-oxo-4-[4-(trifluoromethyl)phenyl]-3-piperidinecarboxamide] was tested, and the pest or weed control at 125 g/ha ([1]; 125 g ai/ha) was 30%, the pest or weed control at 500 g/ha ([1]; 500 g ai/ha) was 90% and the pest or weed control at 125 g/ha ([2]; 125 g ai/ha) was 0%. It also gave a pest or weed control at 500 g/ha ([2]; 500 g ai/ha) of 0%, a pest or weed control at 125 g/ha ([3]; 125 g ai/ha) of 0% and a pest or weed control at 500 g/ha ([3]; 500 g ai/ha) of 40%. It also gave a pest or weed control at 125 g/ha ([4]; 125 g ai/ha) of 0%, a pest or weed control at 500 g/ha ([4]; 500 g ai/ha) of 0% and a plant injury at 250 g/ha ([5]; 250 g ai/ha) of 0%. The plant injury at 1000 g/ha ([5]; 1000 g ai/ha) was 0%, the “Plant response rating, Barnyardgrass” value ([6]; 500 g ai/ha, 0 is no effect, 100 is complete control) was 70 and the pest or weed control at 125 g/ha ([6]; Echinochloa crus-galli, pre-emergence, 240 h, 125 g ai/ha, 0 no effect, 100 complete control, read-out: Barnyardgrass plant response rating) was 40%. The pest or weed control at 250 g/ha ([7]; 250 g ai/ha) was 0%, the pest or weed control at 1000 g/ha ([7]; 1000 g ai/ha) was 40% and the pest or weed control at 125 g/ha ([8]; 125 g ai/ha) was 30%. It also gave a pest or weed control at 500 g/ha ([8]; 500 g ai/ha) of 90%, a Corn plant response rating (crop injury, 0 = no effect, 100 = complete kill) at 125 g/ha ([9]; 125 g ai/ha) of 0% and a Corn plant response rating (crop injury, 0 = no effect, 100 = complete kill) at 500 g/ha ([9]; 500 g ai/ha) of 0%. The pest or weed control at 125 g/ha ([10]; 125 g ai/ha) was 0%, the pest or weed control at 500 g/ha ([10]; 500 g ai/ha) was 0% and the pest or weed control at 125 g/ha ([11]; 125 g ai/ha) was 0%. For the same compound, the pest or weed control at 500 g/ha ([11]; 500 g ai/ha) was 0%, the pest or weed control at 125 g/ha ([12]; 125 g ai/ha) was 70% and the pest or weed control at 500 g/ha ([12]; 500 g ai/ha) was 90%. It also gave a pest or weed control at 125 g/ha ([13]; 125 g ai/ha) of 0%, a pest or weed control at 500 g/ha ([13]; 500 g ai/ha) of 0% and a pest or weed control at 250 g/ha ([14]; 250 g ai/ha) of 70%. For the same compound, the pest or weed control at 1000 g/ha ([14]; 1000 g ai/ha) was 100%, the pest or weed control at 125 g/ha ([15]; 125 g ai/ha) was 0% and the pest or weed control at 500 g/ha ([15]; 500 g ai/ha) was 0%. It also gave a pest or weed control at 250 g/ha ([16]; 250 g ai/ha) of 0%, a pest or weed control at 1000 g/ha ([16]; 1000 g ai/ha) of 0% and a pest or weed control at 125 g/ha ([17]; 125 g ai/ha) of 0%. For the same compound, the pest or weed control at 500 g/ha ([17]; 500 g ai/ha) was 0%, the pest or weed control at 125 g/ha ([18]; 125 g ai/ha) was 0% and the pest or weed control at 500 g/ha ([18]; 500 g ai/ha) was 0%. It also gave a pest or weed control at 125 g/ha ([19]; 125 g ai/ha) of 0%, a pest or weed control at 500 g/ha ([19]; 500 g ai/ha) of 0% and a plant injury at 125 g/ha ([20]; 125 g ai/ha) of 0%. It also gave a plant injury at 500 g/ha ([20]; 500 g ai/ha) of 0%.

Source: patent US9944602B2, “Piperidinone herbicides” (E. I. DU PONT DE NEMOURS AND COMPANY, priority 2014, dated 2018)
